The results in this text go back to patent US11612560B2, “Treatment of Raynaud's phenomenon by inhibition of transient receptor potential melastatin-8 (TRPM-8)” (The University of Toledo, priority 2015, dated 2023).

Molecules are shown by their SMILES. “Also recorded” adds a separate entry of the source.

Data set [1] addresses T1, TRPM8 (Homo sapiens, UniProt Q7Z2W7).
T1 construct: Human MVEC express functional TRPM8; endogenous in cells; host or cells: human microvascular endothelial cells (normal MVEC and SSc-MVEC)
Briefly: Intracellular calcium (Ca2+ influx) in MVEC, Fluo-4AM microfluorometry. It counts as cell-based. The method, then: FIG. 2: Pharmacological activation of TRPM8 in human microvascular endothelial cells. […] ATP was used as the positive control.
FIG. 3: Effects of menthol on intracellular calcium level in NL-MVECs and SSc-MVECs. Cells were loaded with 2 μM calcium indicator dye Fluo-4AM for 1 hour and treated with menthol with and without capsazepine for 10 minutes and then observed under microscope.
To evaluate the functional role of TRPM8 in MVECs, the intracellular calcium ([Ca^2+]) influx into MVEC by Ca^2+ was evaluated by microfluorometry studies in response to the addition of menthol or exposure to cold, which are known to activate TRPM8 (FIG. 2).
The effect of menthol is abrogated by the use of Capsazepine, a TRPM8 receptor inhibitor. These findings indicate that TRPM8 mediates functional effects in MVEC that are mediated by calcium influx, which is antagonized by the use of Capsazepine.
(Calcium flux is commonly read through the fluorescence of an indicator in the cells.)

In data set [2] the target is T1, TRPM8. Put plainly: MVEC gene expression (ET1, NOS3, PTGIS mRNA) by qPCR after TRPM8 activation. The class given is cell-based. The method, then: FIGS. 4A-4C: Effects of cold exposure on ET1 (FIG. 4A), NOS3 (FIG. 4B), and PTGIS (FIG. 4C) mRNA expression. Normal MVECs were exposed to 18° C. temperature for 1 hr. The mRNA expression levels were measured by qPCR.
FIGS. 5A-5C: Effects of Menthol on ET1 (FIG. 5A), NOS3 (FIG. 5B), and PTGIS (FIG. 5C) mRNA expression. Normal endothelial cells were treated with menthol (MT) at 20 μM, 100 μM, and 500 μM with and without capsazepine (CapZ) for 24 hours. The mRNA expression levels were measured by qPCR.
The effect of exposure of normal MVEC to […] on MVEC gene expression was evaluated. Specifically, gene expression levels of NOS3, PTGIS, and ET1 in MVEC were evaluated in response to TRPM8 activation by cold exposure (FIGS. 4A-4C) and menthol (FIGS. 5A-5C) with and without Capsazepine, which is one of the TRPM8 receptor inhibitors.
Thus, the use of TRPM8 antagonists can be an effective strategy for treatment Raynaud's phenomenon in SSc patients.
A general note: Real-time PCR tracks product formation cycle by cycle.

Data set [3] is described as follows: Storage stability of capsazepine. It counts as physicochemical. The following applies: long term storage recommended at −20° C.
Data set [4] relates to patients with Raynaud's phenomenon. Briefly: Cold challenge test with infrared thermography of digital blood flow after topical application. It counts as in vivo, human. From the text: A FLIR thermography system (Wilsonville, Oreg.) was used to evaluate blood flow in the digits in response to a cold challenge test in addition to PPG. The advantage of combining the two modalities is that both (i) a dynamic assessment of blood flow in the hands as reflected by changes in temperature in response to cold challenge tests, as well as (ii) the ability to obtain single point measurements, can be achieved.
FIGS. 8A-8B show the local application of econazole to the left index finger, and clotrimazole to the ring finger, for 15 minutes before cold exposure (FIG. 8A). […] Note the red color that depicts higher temperature of skin on the left index finger in the right panel of FIG. 8B.
Gel formulations of 3% econazole and 3% clotrimazole were prepared, then applied to the index and ring fingers (respectively) of the left hand of patients with Raynaud's phenomenon. The topical application was left for 15 minutes on the fingers, before inducing Raynaud's phenomenon by a cold challenge test. The digital blood flow was analyzed by infrared thermography.

Where [5] appears, read: activation of TRPM8 in MVEC by cold temperature or by menthol, qPCR.

T1 sequence (Q7Z2W7 whole entry): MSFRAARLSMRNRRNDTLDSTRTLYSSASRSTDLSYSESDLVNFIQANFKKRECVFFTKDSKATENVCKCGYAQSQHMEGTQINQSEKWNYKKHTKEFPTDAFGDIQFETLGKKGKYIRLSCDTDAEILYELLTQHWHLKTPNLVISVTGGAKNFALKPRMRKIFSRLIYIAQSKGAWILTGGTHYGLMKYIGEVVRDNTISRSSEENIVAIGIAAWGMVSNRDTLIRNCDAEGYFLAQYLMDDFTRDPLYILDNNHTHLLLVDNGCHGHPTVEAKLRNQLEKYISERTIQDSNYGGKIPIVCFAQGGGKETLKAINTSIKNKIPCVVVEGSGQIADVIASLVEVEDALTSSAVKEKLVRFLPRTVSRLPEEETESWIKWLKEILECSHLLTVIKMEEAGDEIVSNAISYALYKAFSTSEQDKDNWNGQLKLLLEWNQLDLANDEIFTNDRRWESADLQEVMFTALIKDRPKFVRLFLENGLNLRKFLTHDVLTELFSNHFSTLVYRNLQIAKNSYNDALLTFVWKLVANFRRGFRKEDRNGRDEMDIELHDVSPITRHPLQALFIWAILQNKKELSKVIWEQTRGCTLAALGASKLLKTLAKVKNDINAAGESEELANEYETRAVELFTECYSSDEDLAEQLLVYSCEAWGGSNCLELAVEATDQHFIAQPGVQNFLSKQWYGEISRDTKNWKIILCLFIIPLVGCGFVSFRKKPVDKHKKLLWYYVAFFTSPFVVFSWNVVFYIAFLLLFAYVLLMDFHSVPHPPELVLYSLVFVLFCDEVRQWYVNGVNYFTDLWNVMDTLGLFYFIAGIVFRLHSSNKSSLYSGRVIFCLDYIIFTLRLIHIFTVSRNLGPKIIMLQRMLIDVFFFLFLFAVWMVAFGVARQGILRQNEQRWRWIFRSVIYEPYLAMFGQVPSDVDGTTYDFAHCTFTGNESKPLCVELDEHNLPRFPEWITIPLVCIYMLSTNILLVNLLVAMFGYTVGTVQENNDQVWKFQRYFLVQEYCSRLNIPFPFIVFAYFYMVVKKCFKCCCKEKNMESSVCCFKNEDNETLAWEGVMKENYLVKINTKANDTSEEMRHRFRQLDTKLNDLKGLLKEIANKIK

With `Oc1cc2c(cc1O)CN(C(=S)NCCc1ccc(Cl)cc1)CCC2` [capsazepine], on TRPM8 [1] (menthol with capsazepine, 10 minutes, NL-MVECs and SSc-MVECs), the “effect on menthol-induced intracellular calcium increase” value is “abrogated”. Besides, the “effect on cold/menthol-induced changes of ET1, NOS3 and PTGIS expression” value at TRPM8 [2] (MVEC, addition of TRPM8 antagonist) is listed as “normalization of gene expression levels; also recorded: reversed; also recorded: near normalization”. For the same molecule, in data set [3], the “stability at room temperature” value is listed as “not stable at room temperature”.
In the case of `Clc1ccc(COC(Cn2ccnc2)c2ccc(Cl)cc2Cl)cc1` (centres unmarked) [econazole], in data set [4] (3% gel on left index finger, 15 minutes before cold challenge, infrared thermography), the “cold induced decrease in blood flow to the fingers” value is “prevented the cold induced decrease in blood flow”. Besides, in data set [4] (after topical application and cold challenge), the “subjective feeling of finger coldness by patient report” value is given as “less finger coldness”. In data set [4] (local application to left index finger for 15 minutes before cold exposure), the “finger temperature in thermal image after cold exposure” value is “warmer than the other fingers”.
With `CC1CCC(C(C)C)C(O)C1` (centres unmarked) [menthol], the “Ca2+ influx in MVEC” value at TRPM8 [1] (500 μM/L menthol, human microvascular endothelial cells) was “increase in Ca^2+ influx”. Moreover, the intracellular calcium levels result at TRPM8 [1] (SSc MVEC and healthy MVEC, Fluo-4AM, 10 minutes) was “increases intracellular calcium levels”. In addition, at TRPM8 [2] (setting [5]), the NOS3 expression reduction is given as 62%, the PTGIS expression reduction was 61% and the “increase in expression of ET1” value worked out at 2.4 folds.
